Results reported in US7553966B2, “Glucocorticoid mimetics, methods of making them, pharmaceutical compositions, and uses thereof” (Boehringer Ingelheim Pharmaceuticals, Inc., priority 2002, dated 2009).

Experiments:
[1] = target: T1, human glucocorticoid receptor (GR) complex (Homo sapiens, UniProt P04150); test: Glucocorticoid Receptor Competitive Binding Assay (fluorescence polarization, TAMRA-labeled dexamethasone probe); details: qualitative statement; competition with TAMRA-labeled dexamethasone
T1 construct: made in house; host or cells: insect expression system (baculovirus lysate)
T1 sequence (P04150 1-777): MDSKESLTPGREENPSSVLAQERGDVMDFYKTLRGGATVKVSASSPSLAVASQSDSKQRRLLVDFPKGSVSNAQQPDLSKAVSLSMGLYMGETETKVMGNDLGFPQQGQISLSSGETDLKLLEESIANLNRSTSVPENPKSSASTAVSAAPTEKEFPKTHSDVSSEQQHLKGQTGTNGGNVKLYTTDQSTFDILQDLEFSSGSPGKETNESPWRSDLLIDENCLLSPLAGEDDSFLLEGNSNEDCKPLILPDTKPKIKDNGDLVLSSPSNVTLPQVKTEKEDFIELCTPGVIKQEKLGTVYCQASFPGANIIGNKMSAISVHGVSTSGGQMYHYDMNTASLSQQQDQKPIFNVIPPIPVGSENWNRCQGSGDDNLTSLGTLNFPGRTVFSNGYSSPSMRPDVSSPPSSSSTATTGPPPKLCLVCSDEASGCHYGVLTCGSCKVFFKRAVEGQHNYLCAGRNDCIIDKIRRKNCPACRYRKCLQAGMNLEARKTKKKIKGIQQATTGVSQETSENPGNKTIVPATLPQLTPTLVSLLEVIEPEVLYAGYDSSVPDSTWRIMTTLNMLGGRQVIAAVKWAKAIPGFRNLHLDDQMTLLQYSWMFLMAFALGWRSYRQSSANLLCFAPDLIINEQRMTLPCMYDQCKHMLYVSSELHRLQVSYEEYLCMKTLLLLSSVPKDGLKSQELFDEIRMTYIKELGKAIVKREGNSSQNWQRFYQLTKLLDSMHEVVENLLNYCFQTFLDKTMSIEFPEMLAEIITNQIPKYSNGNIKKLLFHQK
Method in brief: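 Competition with TAMRA-dexamethasone for a human GR complex expressed in insect cells, read by fluorescence polarization. Buffer was 10 mM TES, 50 mM KCl, 20 mM Na2MoO4, 1.5 mM EDTA, 0.04% CHAPS, 10% glycerol, 1 mM DTT, pH 7.4.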

[2] = tested on: glucocorticoid receptor; test: Glucocorticoid Receptor Cell Assays (agonist activity in one or more of the above assays); type: cell-based; details: qualitative statement; assay not specified

SMILES	activity in the GR binding assay [1]	activity as agonists of the glucocorticoid receptor function in one or more of the above assays [2]
COc1ccc(F)cc1C(C)(C)CC(O)(Cc1[nH]c2ccccc2c1C#N)C(F)(F)F (stereo not drawn) [2-[4-(5-Fluoro-2-methoxyphenyl)-2-hydroxy-4-methyl-2-trifluoromethylpentyl]-1H-indole-3-carbonitrile]	potent activity	potent agonists
COc1ccccc1C(C)(C)CC(O)(Cc1cc2ccccc2[nH]1)C(F)(F)F (stereo not drawn) [1,1,1-Trifluoro-2-(1H-indol-2-ylmethyl)-4-(2-methoxyphenyl)-4-methylpentan-2-ol]	potent activity	potent agonists
CC(C)(CC(O)(Cc1cc2cc(C#N)ccc2[nH]1)C(F)(F)F)c1ccc(F)cc1 (stereo not drawn) [2-[4-(4-Fluorophenyl)-2-hydroxy-4-methyl-2-trifluoromethylpentyl]-1H-indole-5-carbonitrile]	potent activity	potent agonists
COc1cccc(C(C)(C)CC(O)(Cc2cc3c(C)cc(C#N)cc3[nH]2)C(F)(F)F)c1 (stereo not drawn) [2-[2-Hydroxy-4-(3-methoxyphenyl)-4-methyl-2-trifluoromethylpentyl]-4-methyl-1H-indole-6-carbonitrile]	potent activity	potent agonists
COc1cc(F)ccc1C(C)(C)CC(O)(Cc1cc2ccccc2[nH]1)C(F)(F)F (stereo not drawn) [1,1,1-Trifluoro-4-(4-fluoro-2-methoxyphenyl)-2-(1H-indol-2-ylmethyl)-4-methylpentan-2-ol]	potent activity	potent agonists
CC(C)(CC(O)(Cc1[nH]c2ccccc2c1C#N)C(F)(F)F)c1cc(Br)cc2c1OCC2 (stereo not drawn) [2-[4-(5-Bromo-2,3-dihydrobenzofuran-7-yl)-2-hydroxy-4-methyl-2-trifluoromethylpentyl]-1H-indole-3-carbonitrile]	potent activity	potent agonists
